Source: US9822099B2, “Triazole derivatives” (priority 2013, dated 2017)
Marks after values point to notes of the source that are not given here.

Tested on: Sphaerotheca fuliginea
Assay: Example E: in vivo preventive test on Sphaerotheca fuliginea (powdery mildew on cucurbits)
Conditions: 100 ppm of active ingredient; gherkin plants, preventive spray; evaluated 15 days after inoculation
Experimental: (§1) The young plants of gherkin are treated by spraying the active ingredient prepared as described above. Control plants are treated only with an aqueous solution of acetone/Dimethyl sulfoxide/Tween®. After 24 hours, the plants are contaminated by spraying the leaves with an aqueous suspension of Sphaerotheca fuliginea spores.

Row | Compound | Eff. %
1 | OC(Cc1cccnc1Cl)(Cn1cncn1)C1(Cl)CC1 (stereo not drawn) [Example I-3] | 100%
2 | CC(CF)(CF)C(O)(Cc1ccncc1Cl)Cn1cncn1 (stereo not drawn) [Example I-6] | 100%

Tested on: Venturia inaequalis
Assay: Example O: Venturia test (apples)/preventive
Format: in vivo
Conditions: 100 ppm of active ingredient, preventive, evaluated 10 days after inoculation
Experimental: (§2) Solvent: 24.5 parts by weight of acetone • 24.5 parts by weight of dimethylacetamide Emulsifier: 1 part by weight of alkylaryl polyglycol ether To produce a suitable preparation of active compound, 1 part by weight of active compound is mixed with the stated amounts of solvent and emulsifier, and the concentrate is diluted with water to the desired concentration. To test for preventive activity, young plants are sprayed with the preparation of active compound at the stated rate of application.

Row | Compound | Eff. %
3 | OC(Cc1cccnc1Cl)(Cn1cncn1)C1(Cl)CC1 (stereo not drawn) [Example I-3] | 98%
4 | CC(CF)(CF)C(O)(Cc1ccncc1Cl)Cn1cncn1 (stereo not drawn) [Example I-6] | 100%

Tested on: Septoria tritici
Assay: Example D: in vivo preventive test on Septoria tritici (leaf spot on wheat)
Conditions: 100 ppm of active ingredient; wheat plants, preventive spray; evaluated 24 days after inoculation
Experimental: as §1, with “wheat” for “gherkin”, “Septoria tritici” for “Sphaerotheca fuliginea”

Row | Compound | Eff. %
5 | CC(CF)(CF)C(O)(Cc1ccncc1Cl)Cn1cncn1 (stereo not drawn) [Example I-6] | 100%

Same assay, conditions: 500 ppm of active ingredient; wheat plants, preventive spray; evaluated 24 days after inoculation

Row | Compound | Eff. %
6 | OC(Cc1cccnc1Cl)(Cn1cncn1)C1(Cl)CC1 (stereo not drawn) [Example I-3] | 100%

Tested on: Fusarium nivale (var. majus)
Assay: Example J: Fusarium nivale (var. majus)-test (wheat)/preventive
Format: in vivo
Conditions: 500 ppm of active ingredient, preventive, evaluated 5 days after inoculation
Method in brief: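 Young wheat plants sprayed preventively with active compound (DMA/emulsifier concentrate diluted in water) at the stated rate, then sandblast-wounded and inoculated with conidia. Held in greenhouse at ~10 °C, ~100% RH. Efficacy scored 5 days post-inoculation: 0% = untreated control, 100% = no disease.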

Row | Compound | Eff. %
7 | OC(Cc1cccnc1Cl)(Cn1cncn1)C1(Cl)CC1 (stereo not drawn) [Example I-3] | 100%
8 | CC(CF)(CF)C(O)(Cc1ccncc1Cl)Cn1cncn1 (stereo not drawn) [Example I-6] | 100%

Tested on: Fusarium culmorum
Assay: Example H: Fusarium culmorum-test (wheat)/curative
Format: in vivo
Conditions: 500 ppm of active ingredient, curative, evaluated 5 days after inoculation
Experimental: Solvent: 49 parts by weight of N,N-dimethylacetamide
Emulsifier: 1 part by weight of alkylaryl polyglycol ether
To produce a suitable preparation of active compound, 1 part by weight of active compound or active compound combination is mixed with the stated amounts of solvent and emulsifier, and the concentrate is diluted with water to the desired concentration.
To test for curative activity, young plants are slightly injured by using a sandblast and afterwards they are sprayed with a conidia suspension of Fusarium culmorum and placed for 24 hours in a greenhouse under a translucent incubation cabinet at a temperature of approximately 22° C. and a relative atmospheric humidity of approximately 100% and are subsequently sprayed with the preparation of active compound at the stated rate of application.
After the spray coating has been dried, the plants remain in the greenhouse under translucent incubation cloches at a temperature of approximately 22° C. and a relative atmospheric humidity of approximately 100%.
The test is evaluated 5 days after the inoculation. 0% means an efficacy which corresponds to that of the untreated control, while an efficacy of 100% means that no disease is observed.

Row | Compound | Eff. %
9 | OC(Cc1cccnc1Cl)(Cn1cncn1)C1(Cl)CC1 (stereo not drawn) [Example I-3] | 100%
10 | CC(CF)(CF)C(O)(Cc1ccncc1Cl)Cn1cncn1 (stereo not drawn) [Example I-6] | 100%

Tested on: Pyricularia oryzae
Assay: not given
Format: in vivo
Conditions: 500 ppm of active ingredient; rice, preventive; evaluated 8 days after inoculation

Row | Compound | Eff. %
11 | OC(Cc1cccnc1Cl)(Cn1cncn1)C1(Cl)CC1 (stereo not drawn) [Example I-3] | 100%
12 | CC(CF)(CF)C(O)(Cc1ccncc1Cl)Cn1cncn1 (stereo not drawn) [Example I-6] | 83%

Tested on: Botrytis cinerea
Assay: Example A: in vivo preventive test on Botrytis cinerea (grey mould)
Conditions: 100 ppm of active ingredient; gherkin plants, preventive spray; evaluated 4 to 5 days after inoculation
Experimental: as §1, with “Botrytis cinerea” for “Sphaerotheca fuliginea”

Row | Compound | Eff. %
13 | CC(CF)(CF)C(O)(Cc1ccncc1Cl)Cn1cncn1 (stereo not drawn) [Example I-6] | 76%

Same assay, conditions: 500 ppm of active ingredient; gherkin plants, preventive spray; evaluated 4 to 5 days after inoculation

Row | Compound | Eff. %
14 | OC(Cc1cccnc1Cl)(Cn1cncn1)C1(Cl)CC1 (stereo not drawn) [Example I-3] | 100%

Tested on: Uromyces appendiculatus
Assay: Example F: in vivo preventive test on Uromyces appendiculatus (bean rust)
Conditions: 100 ppm of active ingredient; bean plants, preventive spray; evaluated 11 days after inoculation
Experimental: as §1, with “bean” for “gherkin”, “Uromyces appendiculatus” for “Sphaerotheca fuliginea”

Row | Compound | Eff. %
15 | CC(CF)(CF)C(O)(Cc1ccncc1Cl)Cn1cncn1 (stereo not drawn) [Example I-6] | 100%

Same assay, conditions: 500 ppm of active ingredient; bean plants, preventive spray; evaluated 11 days after inoculation

Row | Compound | Eff. %
16 | OC(Cc1cccnc1Cl)(Cn1cncn1)C1(Cl)CC1 (stereo not drawn) [Example I-3] | 100%

Tested on: not given
Assay: not given
Conditions: pH 2.7

Row | Compound | LogP
17 | OC(Cc1cccnc1Cl)(Cn1cncn1)C1(Cl)CC1 (stereo not drawn) [Example I-3] | 1.78^[a]
18 | CC(CF)(CF)C(O)(Cc1ccncc1Cl)Cn1cncn1 (stereo not drawn) [Example I-6] | 1.54^[a]

Tested on: Puccinia recondita
Assay: Example B: in vivo preventive test on Puccinia recondita (brown rust on wheat)
Conditions: 100 ppm of active ingredient; wheat plants, preventive spray; evaluated 11 days after inoculation
Experimental: as §1, with “wheat” for “gherkin”, “Puccinia recondita” for “Sphaerotheca fuliginea”

Row | Compound | Eff. %
19 | CC(CF)(CF)C(O)(Cc1ccncc1Cl)Cn1cncn1 (stereo not drawn) [Example I-6] | 81%

Same assay, conditions: 500 ppm of active ingredient; wheat plants, preventive spray; evaluated 11 days after inoculation

Row | Compound | Eff. %
20 | OC(Cc1cccnc1Cl)(Cn1cncn1)C1(Cl)CC1 (stereo not drawn) [Example I-3] | 98%

Tested on: Fusarium graminearum
Assay: not given
Format: in vivo
Conditions: 500 ppm of active ingredient; barley, preventive; evaluated 5 days after inoculation

Row | Compound | Eff. %
21 | OC(Cc1cccnc1Cl)(Cn1cncn1)C1(Cl)CC1 (stereo not drawn) [Example I-3] | 100%
22 | CC(CF)(CF)C(O)(Cc1ccncc1Cl)Cn1cncn1 (stereo not drawn) [Example I-6] | 100%

Tested on: Podosphaera leucotricha
Assay: Example M: Podosphaera test (apples)/preventive
Format: in vivo
Conditions: 100 ppm of active ingredient, preventive, evaluated 10 days after inoculation
Experimental: as §2, with “application. After the spray coating has dried on, the plants are inoculated with an aqueous spore suspension of the causal agent of apple mildew (Podosphaera leucotricha).” for “application.”

Row | Compound | Eff. %
23 | OC(Cc1cccnc1Cl)(Cn1cncn1)C1(Cl)CC1 (stereo not drawn) [Example I-3] | 100%

Tested on: Pyrenophora teres
Assay: Example C: in vivo preventive test on Pyrenophora teres (net blotch on barley)
Conditions: 500 ppm of active ingredient; barley plants, preventive spray; evaluated 14 days after inoculation
Experimental: as §1, with “barley” for “gherkin”, “Pyrenophora teres” for “Sphaerotheca fuliginea”

Row | Compound | Eff. %
24 | OC(Cc1cccnc1Cl)(Cn1cncn1)C1(Cl)CC1 (stereo not drawn) [Example I-3] | 100%

Tested on: Phakopsora pachyrhizi
Assay: Example L: Phakopsora test (soybeans)/preventive
Format: in vivo
Conditions: 100 ppm of active ingredient, preventive, evaluated 7 days after inoculation

Row | Compound | Eff. %
25 | OC(Cc1cccnc1Cl)(Cn1cncn1)C1(Cl)CC1 (stereo not drawn) [Example I-3] | 100%
26 | CC(CF)(CF)C(O)(Cc1ccncc1Cl)Cn1cncn1 (stereo not drawn) [Example I-6] | 95%

Tested on: Leptosphaeria nodorum
Assay: Example K: Leptosphaeria nodorum test (wheat)/preventive
Format: in vivo
Conditions: 500 ppm of active ingredient, preventive, evaluated 8 days after inoculation
Experimental: Solvent: 49 parts by weight of N,N-dimethylacetamide Emulsifier: 1 part by weight of alkylaryl polyglycol ether To produce a suitable preparation of active compound, 1 part by weight of active compound or active compound combination is mixed with the stated amounts of solvent and emulsifier, and the concentrate is diluted with water to the desired concentration. To test for preventive activity, young plants are sprayed with the preparation of active compound or active compound combination at the stated rate of application. After the spray coating has been dried, the plants are sprayed with a spore suspension of Leptosphaeria nodorum.

Row | Compound | Eff. %
27 | OC(Cc1cccnc1Cl)(Cn1cncn1)C1(Cl)CC1 (stereo not drawn) [Example I-3] | 100%
28 | CC(CF)(CF)C(O)(Cc1ccncc1Cl)Cn1cncn1 (stereo not drawn) [Example I-6] | 100%

Tested on: Blumeria graminis f. sp. hordei
Assay: Example G: Blumeria test (barley)/preventive
Format: in vivo
Conditions: 500 ppm of active ingredient, preventive, evaluated 7 days after inoculation
Method in brief: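 Active compound formulated in N,N-dimethylacetamide with alkylaryl polyglycol ether emulsifier, diluted in water, and sprayed onto young barley plants at the stated application rate. Once the coating dried, plants were dusted with Blumeria graminis f. sp. hordei spores as a preventive test.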

Row | Compound | Eff. %
29 | OC(Cc1cccnc1Cl)(Cn1cncn1)C1(Cl)CC1 (stereo not drawn) [Example I-3] | 100%
30 | CC(CF)(CF)C(O)(Cc1ccncc1Cl)Cn1cncn1 (stereo not drawn) [Example I-6] | 100%
